# Assay results as given in patent US8192962B2, “Processes for detecting toxic substances” (Daikin Industries, Ltd., priority 2001, dated 2012).
# System: Energy system protein genes
# Assay: DNA chip mRNA expression in yeast, energy system protein genes (Table 4)
# Type: cell-based, Saccharomyces cerevisiae S288C
# Experimental: Yeast (Saccharomyces cerevisiae S288C (α SUC2mal mel gap2 CUP1)) were incubated at 25° C. on YPD medium (yeast extract 1%, polypepton 2%, glucose 2%). One of toxic chemical substances was added to the cells at logarithmic growth phase, and the cells were further incubated for two hours. Cells were cultured without any chemical substance in the same condition, and were used as control. Concentrations of the chemical substances were defined to inhibit the growth of the yeast but not lead to death.
# After completion of the incubation, the culture was centrifuged to collect the cells. To the cells, sodium acetate buffer (50 mM sodium acetate, 10 mM EDTA, 1% SDS) was added, and the mixture was shaken at 65° C. for five minutes, followed by returning to room temperature, and obtaining the supernatant, of which the procedures were repeated two times. To the supernatant, ½ amount of a solution of phenol/chloroform was added, and the mixture was centrifuged to give a supernatant, which was added with an equal amount of chloroform, and the mixture was centrifuged to give a supernatant. To the supernatant, an equal amount of isopropanol containing 0.3 M sodium acetate was added, and the mixture was allowed to stand at room temperature for 30 minutes, after which the mixture was centrifuged to give a sediment of the whole RNAs. Seventy % ethanol was added to the sediment, and the mixture was again centrifuged to give a sediment, which was then dried and dissolved in water. mRNA was isolated from the whole RNAs as followings. In view of the fact that a poly A chain is attached to the 3′ terminus of mRNA, a polynucleotide having a poly T structure which was immobilized on the surface of latex beads was used to trap the mRNA, and then the mRNA was washed and eluted with spine column (Oligotex-dT30<Super>mRNA Purification Kit, Takara). Reverse transcription of the mRNA was conducted with a reverse transcriptase (Super Script II Reverse Transcriptase; catalogue No. 18064-014, GibcoBRL) using fluorescence-labeled nucleotides to give cDNAs that were introduced with Cy3-dUTP or Cy5-dUTP during the reverse transcription.
# The labeled cDNAs were dissolved in TE buffer (10mM Tris-HCl/1 mM EDTA, pH8.0), and the solution was dropped on the DNA chip containing the whole genes of yeast (DNA Chip Research Inc. Japan) so that the cDNAs were hybridized on the DNA chip at 65° C. for over 12 hours. The fluoresces intensity of the DNA chip was read with a scanner, and the ratio relative to the fluorescence intensity resulting from the absence of chemical substance was estimated as the following, which is shown in Tables 1 to 9: […]
structure (smiles),measurement,setting,value
"C[S+](C)[O-] [(15), dimethylsulfoxide]",The level of expressed mRNA in the presence of chemical substance/The level of expressed mRNA in the absence of chemical substance,yeast gene YAL038W,3.1
same,The level of expressed mRNA in the presence of chemical substance/The level of expressed mRNA in the absence of chemical substance,yeast gene YAL054C,0.9
same,The level of expressed mRNA in the presence of chemical substance/The level of expressed mRNA in the absence of chemical substance,yeast gene YAL060W,0.9
same,The level of expressed mRNA in the presence of chemical substance/The level of expressed mRNA in the absence of chemical substance,"yeast gene YBL058W, cells incubated two hours with the chemical substance",1.8
same,The level of expressed mRNA in the presence of chemical substance/The level of expressed mRNA in the absence of chemical substance,yeast gene YBR126C,1.0
same,The level of expressed mRNA in the presence of chemical substance/The level of expressed mRNA in the absence of chemical substance,yeast gene YBR145W,1.2
same,The level of expressed mRNA in the presence of chemical substance/The level of expressed mRNA in the absence of chemical substance,yeast gene YBR196C,1.9
same,The level of expressed mRNA in the presence of chemical substance/The level of expressed mRNA in the absence of chemical substance,yeast gene YBR299W,0.6
same,The level of expressed mRNA in the presence of chemical substance/The level of expressed mRNA in the absence of chemical substance,yeast gene YCL040W,3.4
same,The level of expressed mRNA in the presence of chemical substance/The level of expressed mRNA in the absence of chemical substance,yeast gene YCR005C,0.7
same,The level of expressed mRNA in the presence of chemical substance/The level of expressed mRNA in the absence of chemical substance,yeast gene YCR012W,1.4
same,The level of expressed mRNA in the presence of chemical substance/The level of expressed mRNA in the absence of chemical substance,yeast gene YCR107W,4.8
same,The level of expressed mRNA in the presence of chemical substance/The level of expressed mRNA in the absence of chemical substance,"yeast gene YDL067C, cells incubated two hours with the chemical substance",0.7
same,The level of expressed mRNA in the presence of chemical substance/The level of expressed mRNA in the absence of chemical substance,"yeast gene YDL078C, cells incubated two hours with the chemical substance",0.5
same,The level of expressed mRNA in the presence of chemical substance/The level of expressed mRNA in the absence of chemical substance,"yeast gene YDL085W, cells incubated two hours with the chemical substance",0.7
same,The level of expressed mRNA in the presence of chemical substance/The level of expressed mRNA in the absence of chemical substance,yeast gene YDL174C,0.6
same,The level of expressed mRNA in the presence of chemical substance/The level of expressed mRNA in the absence of chemical substance,"yeast gene YDL181W, cells incubated two hours with the chemical substance",0.4
same,The level of expressed mRNA in the presence of chemical substance/The level of expressed mRNA in the absence of chemical substance,yeast gene YDL243C,4.2
same,The level of expressed mRNA in the presence of chemical substance/The level of expressed mRNA in the absence of chemical substance,"yeast gene YDR178W, cells incubated two hours with the chemical substance",0.7
same,The level of expressed mRNA in the presence of chemical substance/The level of expressed mRNA in the absence of chemical substance,yeast gene YDR231C,1.0
same,The level of expressed mRNA in the presence of chemical substance/The level of expressed mRNA in the absence of chemical substance,"yeast gene YDR298C, cells incubated two hours with the chemical substance",0.8
same,The level of expressed mRNA in the presence of chemical substance/The level of expressed mRNA in the absence of chemical substance,yeast gene YDR380W,2.4
same,The level of expressed mRNA in the presence of chemical substance/The level of expressed mRNA in the absence of chemical substance,"yeast gene YDR529C, cells incubated two hours with the chemical substance",0.5
same,The level of expressed mRNA in the presence of chemical substance/The level of expressed mRNA in the absence of chemical substance,yeast gene YEL020C,1.4
same,The level of expressed mRNA in the presence of chemical substance/The level of expressed mRNA in the absence of chemical substance,"yeast gene YEL039C, cells incubated two hours with the chemical substance",0.4
same,The level of expressed mRNA in the presence of chemical substance/The level of expressed mRNA in the absence of chemical substance,"yeast gene YEL071W, cells incubated two hours with the chemical substance",1.6
same,The level of expressed mRNA in the presence of chemical substance/The level of expressed mRNA in the absence of chemical substance,"yeast gene YER061C, cells incubated two hours with the chemical substance",0.8
same,The level of expressed mRNA in the presence of chemical substance/The level of expressed mRNA in the absence of chemical substance,yeast gene YER178W,1.8
same,The level of expressed mRNA in the presence of chemical substance/The level of expressed mRNA in the absence of chemical substance,yeast gene YFL057C,3.1
same,The level of expressed mRNA in the presence of chemical substance/The level of expressed mRNA in the absence of chemical substance,yeast gene YFR053C,0.6
same,The level of expressed mRNA in the presence of chemical substance/The level of expressed mRNA in the absence of chemical substance,yeast gene YGL062W,2.7
same,The level of expressed mRNA in the presence of chemical substance/The level of expressed mRNA in the absence of chemical substance,"yeast gene YGL191W, cells incubated two hours with the chemical substance",0.7
same,The level of expressed mRNA in the presence of chemical substance/The level of expressed mRNA in the absence of chemical substance,yeast gene YGL253W,0.8
same,The level of expressed mRNA in the presence of chemical substance/The level of expressed mRNA in the absence of chemical substance,yeast gene YGR008C,1.5
same,The level of expressed mRNA in the presence of chemical substance/The level of expressed mRNA in the absence of chemical substance,"yeast gene YGR062C, cells incubated two hours with the chemical substance, 25° C., YPD medium",0.5
same,The level of expressed mRNA in the presence of chemical substance/The level of expressed mRNA in the absence of chemical substance,"yeast gene YGR087C, cells incubated two hours with the chemical substance",3.5
same,The level of expressed mRNA in the presence of chemical substance/The level of expressed mRNA in the absence of chemical substance,"yeast gene YGR174C, cells incubated two hours with the chemical substance",0.7
same,The level of expressed mRNA in the presence of chemical substance/The level of expressed mRNA in the absence of chemical substance,yeast gene YGR192C,1.9
same,The level of expressed mRNA in the presence of chemical substance/The level of expressed mRNA in the absence of chemical substance,yeast gene YGR207C,0.6
same,The level of expressed mRNA in the presence of chemical substance/The level of expressed mRNA in the absence of chemical substance,yeast gene YGR244C,2.0
same,The level of expressed mRNA in the presence of chemical substance/The level of expressed mRNA in the absence of chemical substance,yeast gene YGR254W,2.4
same,The level of expressed mRNA in the presence of chemical substance/The level of expressed mRNA in the absence of chemical substance,yeast gene YGR256W,2.7
same,The level of expressed mRNA in the presence of chemical substance/The level of expressed mRNA in the absence of chemical substance,yeast gene YHL008C,1.8
same,The level of expressed mRNA in the presence of chemical substance/The level of expressed mRNA in the absence of chemical substance,yeast gene YHR174W,2.0
same,The level of expressed mRNA in the presence of chemical substance/The level of expressed mRNA in the absence of chemical substance,yeast gene YHR179W,2.7
same,The level of expressed mRNA in the presence of chemical substance/The level of expressed mRNA in the absence of chemical substance,yeast gene YIL045W,0.6
same,The level of expressed mRNA in the presence of chemical substance/The level of expressed mRNA in the absence of chemical substance,yeast gene YIL111W,1.1
same,The level of expressed mRNA in the presence of chemical substance/The level of expressed mRNA in the absence of chemical substance,yeast gene YIL160C,5.6
same,The level of expressed mRNA in the presence of chemical substance/The level of expressed mRNA in the absence of chemical substance,yeast gene YIL172C,1.4
same,The level of expressed mRNA in the presence of chemical substance/The level of expressed mRNA in the absence of chemical substance,"yeast gene YIR031C, cells incubated two hours with the chemical substance",0.8
